Assay: degradation kinetics (mass loss) of copolymers and of microbeads from copolymer blends (FIGS. 12A, 12B)
Format: physicochemical
From the text: The illustrative examples of achievable degradation profile are presented on FIGS. 12A and 12B.
Adjusting ratio of iodinated structural component (PrD-diI2DAT) and rubbery component (PEG400 or PEG1000), ratio of Carbonate to Oxalate bonds in single copolymer or utilizing blends of copolymers, a wide spectrum of degradation profiles could be achieved, including multi-step degradation.

Copolymer 50% PrD-di I2DAT-co-50% PEG1K with 100% carbonate bonds [Formula #4]
degradation kinetic (mass loss), result in words: slow degradation

From patent US12329876B2, “Porous bioresorbable radiopaque embolic microspheres for drug delivery” (REVA Medical, LLC, priority 2018, dated 2025)
